Results published in ChEMBL document CHEMBL4184237, “Cytotoxic oligophenols from the rhizome of Wikstroemia indica” (Bioorg Med Chem Lett, 2018).
Each block holds one compound with its values, some of them ahead of it.

Assays:
SW480 [1] = test: Cytotoxicity against human SW480 cells assessed as reduction in cell viability incubated for 24 hrs by CCK8 assay; format: functional, cell-based; settings: SW480, 24 h
T98G [2] = test: Cytotoxicity against human T98G cells assessed as reduction in cell viability incubated for 24 hrs by CCK8 assay; format: functional, cell-based
HCT-116 = test: Cytotoxicity against human HCT116 cells assessed as reduction in cell viability incubated for 24 hrs by CCK8 assay; format: functional, cell-based; settings: HCT-116, 24 h
U-87 MG = test: Cytotoxicity against human U87 cells assessed as reduction in cell viability incubated for 24 hrs by CCK8 assay; format: functional, cell-based, U-87MG ATCC
SW480 [3] = test: Induction of apoptosis in human SW480 cells assessed as early apoptotic cells level incubated for 48 hrs by Annexin V-FITC and PI double staining based flow cytometry (reference value: 2.75%); format: functional
SW480 [4] = test: Induction of apoptosis in human SW480 cells assessed as viable cells level incubated for 48 hrs by Annexin V-FITC and PI double staining based flow cytometry (reference value: 93.2%); format: functional
SW480 [5] = test: Effect on GAPDH protein expression human SW480 cells assessed as GAPDH protein level incubated for 48 hrs by Western blot analysis relative to untreated control; format: ADME, cell-based; settings: sw480, 48 h
T98G [6] = test: Induction of apoptosis in human T98G cells assessed as necrotic cells level incubated for 48 hrs by Annexin V-FITC and PI double staining based flow cytometry (reference value: 1.66%); format: functional
T98G [7] = test: Effect on GAPDH protein expression human T98G cells assessed as GAPDH protein level incubated for 48 hrs by Western blot analysis relative to untreated control; format: ADME, cell-based
SW480 [8] = test: Induction of apoptosis in human SW480 cells assessed as Bax protein level incubated for 48 hrs by Western blot analysis relative to untreated control; format: functional
T98G [9] = test: Induction of apoptosis in human T98G cells assessed as late apoptotic cells level incubated for 48 hrs by Annexin V-FITC and PI double staining based flow cytometry (reference value: 5.35%); format: functional
T98G [10] = test: Induction of apoptosis in human T98G cells assessed as early apoptotic cells level incubated for 48 hrs by Annexin V-FITC and PI double staining based flow cytometry (reference value: 1.79%); format: functional
SW480 [11] = test: Induction of apoptosis in human SW480 cells assessed as Bcl-xL protein level incubated for 48 hrs by Western blot analysis relative to untreated control; format: functional
SW480 [12] = test: Induction of apoptosis in human SW480 cells assessed as late apoptotic cells level incubated for 48 hrs by Annexin V-FITC and PI double staining based flow cytometry (reference value: 2.09%); format: functional
SW480 [13] = test: Induction of apoptosis in human SW480 cells assessed as necrotic cells level incubated for 48 hrs by Annexin V-FITC and PI double staining based flow cytometry (reference value: 1.17%); format: functional
T98G [14] = test: Induction of apoptosis in human T98G cells assessed as Bcl-xL protein level incubated for 48 hrs by Western blot analysis relative to untreated control; format: functional
T98G [15] = test: Induction of apoptosis in human T98G cells assessed as viable cells level incubated for 48 hrs by Annexin V-FITC and PI double staining based flow cytometry (reference value: 91.3%); format: functional
T98G [16] = test: Induction of apoptosis in human T98G cells assessed as Bax protein level incubated for 48 hrs by Western blot analysis relative to untreated control; format: functional

Structure (SMILES): O=c1ccc2ccc(Oc3cc4ccc(O[C@@H]5O[C@H](CO)[C@@H](O)[C@H](O)[C@H]5O)c(-c5c(O)ccc6ccc(=O)oc56)c4oc3=O)cc2o1
IC50 (SW480 [1]): > 100 µM | IC50 (T98G [2]): > 100 µM | IC50 (HCT-116): > 100 µM | IC50 (U-87 MG): > 100 µM

Structure (SMILES): O=c1c(-c2c(O)cc3c(c2O)C[C@@H](O)[C@H](c2ccc(O)cc2)O3)c(-c2ccc(O)cc2)oc2cc(O)cc(O)c12
IC50 (SW480 [1]): 17.9 µM | Activity (SW480 [3]): 34.2% | Activity (SW480 [4]): 51.6% | fold change (FC) (SW480 [5]): 0.9 | Activity (T98G [6]): 1.36% | fold change (FC) (T98G [7]): 1 | IC50 (T98G [2]): 30.6 µM | fold change (FC) (SW480 [8]): 2.3 | IC50 (HCT-116): 24.4 µM | Activity (T98G [9]): 25.4% | Activity (T98G [10]): 10.3% | fold change (FC) (SW480 [11]): 0.8 | IC50 (U-87 MG): 35.7 µM | Activity (SW480 [12]): 12.9% | Activity (SW480 [13]): 1.31% | fold change (FC) (T98G [14]): 0.7 | Activity (T98G [15]): 62.9% | fold change (FC) (T98G [16]): 3.4

Structure (SMILES): CC(=O)O[C@H]1C(=O)[C@@]2(C)[C@H]([C@H](OC(=O)c3ccccc3)[C@]3(O)C[C@H](OC(=O)[C@H](O)[C@@H](NC(=O)c4ccccc4)c4ccccc4)C(C)=C1C3(C)C)[C@]1(OC(C)=O)CO[C@@H]1C[C@@H]2O [PACLITAXEL]
IC50 (SW480 [1]): 0.19 µM | Activity (SW480 [3]): 45.6% | Activity (SW480 [4]): 33.6% | Activity (T98G [6]): 3.23% | IC50 (T98G [2]): 0.74 µM | Activity (T98G [9]): 56.2% | Activity (T98G [10]): 15% | IC50 (U-87 MG): 4.67 µM | Activity (SW480 [12]): 14.7% | Activity (SW480 [13]): 1.13% | Activity (T98G [15]): 25.6%

More lines, main results first:

fold change (FC) (SW480 [5]): 1 | fold change (FC) (T98G [7]): 1
Structure (SMILES): O=c1c(-c2c(O)cc3c(c2O)C[C@H](O)[C@H](c2ccc(O)c(O)c2)O3)c(-c2ccc(O)cc2)oc2cc(O)cc(O)c12
IC50 (SW480 [1]): 71 µM | Activity (SW480 [3]): 18.5% | Activity (SW480 [4]): 64.8% | Activity (T98G [6]): 1.55% | IC50 (T98G [2]): 83.5 µM | fold change (FC) (SW480 [8]): 1.9 | IC50 (HCT-116): 87.6 µM | Activity (T98G [9]): 15% | Activity (T98G [10]): 4.11% | fold change (FC) (SW480 [11]): 0.6 | IC50 (U-87 MG): 88.4 µM | Activity (SW480 [12]): 13.7% | Activity (SW480 [13]): 2.87% | fold change (FC) (T98G [14]): 0.4 | Activity (T98G [15]): 79.4% | fold change (FC) (T98G [16]): 4.1

fold change (FC) (SW480 [5]): 1 | fold change (FC) (T98G [7]): 0.9
Structure (SMILES): O=c1c(-c2c(O)cc3c(c2O)C[C@@H](O)[C@@H](c2ccc(O)c(O)c2)O3)c(-c2ccc(O)cc2)oc2cc(O)cc(O)c12
IC50 (SW480 [1]): 30.4 µM | Activity (SW480 [3]): 21.7% | Activity (SW480 [4]): 68.1% | Activity (T98G [6]): 1.15% | IC50 (T98G [2]): 27.3 µM | fold change (FC) (SW480 [8]): 2.4 | IC50 (HCT-116): 28.7 µM | Activity (T98G [9]): 17.2% | Activity (T98G [10]): 17.8% | fold change (FC) (SW480 [11]): 0.7 | IC50 (U-87 MG): 32.5 µM | Activity (SW480 [12]): 9.3% | Activity (SW480 [13]): 0.909% | fold change (FC) (T98G [14]): 0.7 | Activity (T98G [15]): 63.9% | fold change (FC) (T98G [16]): 3.8
